Patent publication US20160274123A1, “One-Photon and/or Two-Photon Fluorescent Probe for Sensing Hydrogen Sulfide, Imaging Method of Hydrogen Sulfide Using Same, and Manufacturing Method Thereof” (POSTECH ACADEMY-INDUSTRY FOUNDATION, priority 2013, published 2016)
Entries after “also recorded” stand apart in the source; their conditions may differ.

How the values were obtained:
[1] = Fluorescence change under hydrogen sulfide and biological sulfide conditions (selectivity); details: Compound 10 μM; Na2S 100 μM, GSH 10 mM, Cys 200 μM, Hcy 50 μM; pH 7.4 HEPES buffer; excitation 375 nm, emission 510 nm
Procedure: To confirm the hydrogen sulfide selectivity of Compound 2 under hydrogen sulfide and biological sulfide conditions, the fluorescence change of Compound 2 (10 μM) was observed under biological sulfide conditions (Na2S (100 μM), the same material as H2S), glutathione (GSH, 10 mM), cysteine (Cys, 200 μM), and homocysteine (Hcy, 50 μM) (using the same buffer as used in Example 1)). Here, an excitation wavelength was 375 nm, and a fluorescence emission wavelength was detected to be 510 nm.
That is, the fluorescence changes of Compounds 2, 3 and 4 (10 μM) were observed under the biological sulfide conditions (Na2S (100 μM, the same as H2S), glutathione (GSH, 10 mM), cysteine (Cys, 200 μM), homocysteine (Hcy, 50 μM)), a buffer used in the experiment was the same as used in Example 1, an excitation wavelength was 375 nm, and a fluorescence emission wavelength was detected to be 510 nm.

[2] = Fluorescence change of the probe on reaction with hydrogen sulfide in buffer; details: Compound 10 μM
Procedure: A mechanism of a fluorescence turn-on phenomenon according to a reaction between Compound 2 and hydrogen sulfide is shown in FIG. 1a, an α-β unsaturated carbonyl group of Compound 2 reacted with hydrogen sulfide to induce a ring-shape in a chemical reaction.
Therefore, to observe the fluorescence change of Compound 2 due to hydrogen sulfide, a fluorescence graph of Compound 2 was measured in a buffer (pH 7.4, 10 mM HEPES buffer). For fluorescence spectra analysis, a photon technical international fluorescence system manufactured by PTI was used, as a cell providing Compound 2 to each instrument, a standard quartz cell having a thickness of 1 cm was used. First, Compound 2 (10 μM) was treated with hydrogen sulfide at a concentration of 0 to 50 μM, and after 5 minutes, a fluorescence graph was checked.
To observe the fluorescence change of Compound 2 over time due to hydrogen sulfide, Compound 2 (10 μM) was treated with 100 μM of hydrogen sulfide (using the same buffer as used in Example 1), and a graph of fluorescence over time was analyzed. When an excitation wavelength was 375 nm, a fluorescence emission wavelength was detected to be 510 nm.
To observe the hydrogen sulfide sensitivity of Compound 2 based on fluorescence change, an amount of Na2S (the same as H2S) in Compound 2 (10 μM) was reduced. A buffer used in the experiment was the same as used in Example 1, 50 nM of Na2S was added, an excitation wavelength was 375 nm, and a fluorescence emission wavelength was detected to be 510 nm.
To observe fluorescence changes of Compound 2 due to hydrogen sulfide under various acidity (pH) conditions, the fluorescence changes were examined when Compound 2 (10 μM) bound to H2S under various acidity conditions (pH 5˜9). In other words, 100 μM of H2S reacted to Compound 2 at pH 5, 6, 7, 8, or 9, and then 5 minutes later, a fluorescence intensity was measured. Here, an excitation wavelength was 375 nm, and a fluorescence emission wavelength was detected to be 510 nm.

[3] = Fluorescence change on reaction with various types of biological substances; details: Compound 10 μM; amino acids, lipoic acid, anions, H2O2 each 100 μM; about 30 minutes; pH 7.4 HEPES buffer
Procedure: To observe fluorescence changes according to reactions between various types of biological substances and Compound 2, Compound 2 (10 μM) was reacted with a biologically-active substance (an amino acid (Ala, Glu, Lys, or Met), lipoic acid, an anion (NO^2−, SO4^2−, S2O3^2−, SCN^−, or I^−), and active oxygen (H2O2). A buffer used in the experiment was the same as used in Example 1, and the concentration of each biologically-active substance was 100 μM. Each biologically-active substance was added, and after about 30 minutes, an excitation wavelength was 375 nm, and a fluorescence emission wavelength was detected to be 510 nm.

HeLa cells [4] = test: Cell imaging using one-photon and two-photon fluorescence microscopes; assay type: cell-based, human; details: probe 10 μM
Procedure: To observe a fluorescence change according to the treatment with Compound 2 through cell imaging using one-photon and two-photon fluorescence microscopes, Compound 2 (10 μM) was treated with human cervical carcinoma cells (HeLa cells). The HeLa cells were cultured in a Dulbecco's modified eagles medium (DMEM, Hyclone) containing 10% fetal bovine serum (Hyclone) and penicillin-streptomycin (Hyclone) with 5% carbon dioxide at an ambient temperature of 37° C. to a cell density of about 20,000 cells/cm^2, and used in the experiment. The used one-photon fluorescence microscope is an LSM710 confocal microscope manufactured by Carl Ziess, and the two-photon fluorescence microscope is a Chameleon Ultra model having a Ti-sapphire laser, which is manufactured by Coherent. A lens used in the two-photon fluorescence microscope is an XLUMPLFNM, NA 1.0 model manufactured by Olympus, and a wavelength and laser power of the two-photon fluorescence microscope are 880 nm and 15 mW, respectively. […]

[5] = tested on: hydrogen sulfide (H2S) in each organ (the brain, kidney, liver, spleen or lung) of a mouse; test: Mouse organ tissue imaging using two-photon fluorescence microscope; assay type: in vivo
Procedure: Tissue imaging per each organ of a Compound 2 treated mouse was performed using a two-photon fluorescence microscope. That is, the distribution of hydrogen sulfide (H2S) in each organ (the brain, kidney, liver, spleen or lung) of a mouse was confirmed using Compound 2. To this end, a set (1′) was prepared by injecting Compound 2 into the abdominal cavity of a live mouse and extracting an organ, and a set (2′) was prepared by extracting each organ of a mouse and immersing the organ in a solution of Compound 2. The mouse used in the experiment was a C57BL6 type (SAMTAKO Corp.), which is five weeks old. More particularly, for the set (1′), 20 μL of a 10 mM solution of Compound 2, which had been taken and diluted in 280 μL of a PBS (100 mM, pH 7.4) buffer, was injected into the abdominal cavity of a mouse twice a day for a total of 5 days, and then each organ was extracted. The extracted organ was frozen in dry ice for 5 minutes, crushed into smaller pieces with a hammer, and cut to a thickness of 16 μm using a section machine (Cryostat machine, Leica, CM3000 model). […] Subsequently, the resultant sample was washed three times with a PBS buffer, covered with a mount solution (Gel Mount, BIOMEDA), and then imaged using a two-photon fluorescence microscope, which is the same as used in Example 7. However, an excitation wavelength and laser power of the two-photon fluorescence microscope were 880 nm and 40 mW, respectively. Also, for the set (2′), first, each organ of a mouse was extracted and immersed in a solution (10 μM) of Compound 2 for 10 minutes, and then a sample prepared as described above was imaged by the same method used for the set (1′).

HeLa cells [6] = test: Cytotoxicity experiment by MTT method; assay type: cell-based, human
Procedure: To confirm the cytotoxicity of Compound 2 according to the present invention, a cytotoxicity experiment in HeLa cells was performed by an MTT method. That is, the Hela cells prepared by the same method as used in Example 7 were treated with Compound 2 at each concentration (0˜100 μM). In addition, to confirm the cytotoxicity, 25 μL of 3-(4,5-dimethldiazol-2-yl)-2, 5-diphenyltetrazolium bromide (MTT) having a concentration of 5 mg/mL was added. The cells were cultured at 37° C. for about 2 hours, treated with 100 μL of a solubilizing solution (50% dimethylformamide, 20% SDS, pH 7.4), and cultured at 37° C. for 24 hours, and then the absorbance was measured at 570 nm.

[7] = 100 μM hydrogen sulfide, pH 7.4 10 mM HEPES buffer, excitation 375 nm, emission 510 nm

Row | Compound | selectivity to hydrogen sulfide under biological sulfide conditions [1] | signal to noise ratio of fluorescence turn-on ([2]; 50 nM Na2S, about 5 minutes after addition, pH 7.4 HEPES buffer) | fluorescence change due to hydrogen sulfide under various acidity (pH) conditions ([2]; 100 μM H2S, pH 5, 6, 7, 8 or 9, 5 minutes) | time to approach the maximum fluorescence level [2, 7] | time to saturation of fluorescence emission [2, 7] | fluorescence change with increasing concentration of hydrogen sulfide ([2]; hydrogen sulfide 0 to 50 μM, after 5 minutes, pH 7.4 10 mM HEPES buffer, excitation 375 nm, emission 510 nm) | low concentration of Na2S (H2S) at which fluorescence can be observed (sensitivity) ([2]; pH 7.4 HEPES buffer, excitation 375 nm, emission 510 nm) | selective fluorescence turn-on versus various biologically-active substances [3] | permeation into cells (HeLa cells [4]) | fluorescence change in cells treated only with the probe (HeLa cells [4]; cultured 30 minutes, set (2)) | two-photon fluorescence signal in organs after abdominal injection ([5]; set (1′): C57BL6 mouse, injected into the abdominal cavity twice a day for 5 days, organs extracted) | permeation into organs after abdominal injection ([5]; set (1′): living C57BL6 mouse, abdominal injection) | two-photon fluorescence change in extracted organs immersed in probe solution ([5]; set (2′): extracted mouse organs immersed in 10 μM solution for 10 minutes) | cytotoxicity (HeLa cells [6]; 0˜100 μM) | cell viability (HeLa cells [6]; concentrations until 100 μM)
1 | COc1cccc(C=O)c1/C=C/C(=O)c1ccc2cc(NCCO)ccc2c1 [Compound 3, (E)-2-(3-(6-(2-hydroxyethylamino)naphthalene-2-yl)-3-oxoprop-1-enyl)-3-methoxybenzaldehyde] | relatively lower selectivity to hydrogen sulfide than Compound 2 |  |  |  |  |  |  |  |  |  |  |  |  |  | 
2 | COc1cc(C=O)c(/C=C/C(=O)c2ccc3cc(NCCO)ccc3c2)c(OC)c1 [Compound 2, (E)-2-(3-(6-(2-hydroxyethylamino)naphthalene-2-yl)-3-oxoprop-1-enyl)-3,5-dimethoxybenzaldehyde] | sufficient fluorescence turn-on phenomenon only in a reaction with Na2S; also recorded: high selectivity to hydrogen sulfide | ≥ 3 | the sharpest increase in fluorescence was shown at neutral pH | ≤ 5 min | about 10 minutes | fluorescence intensity was increased | 50 nM | only reacts with hydrogen sulfide (H2S) | easily permeates into cells | showed an increase in fluorescence | signals are increased in the brain, kidney, liver, spleen and lung | permeated throughout the organ, particularly, into the brain | strong fluorescence changes are shown in the brain, liver and lung | not toxic to the cells | ≥ 95%
3 | O=Cc1ccccc1/C=C/C(=O)c1ccc2cc(NCCO)ccc2c1 [Compound 4, (E)-2-(3-(6-(2-hydroxyethylamino)naphthalene-2-yl)-3-oxoprop-1-enyl)benzaldehyde] | did not have selectivity to hydrogen sulfide |  |  |  |  |  |  |  |  |  |  |  |  |  | 
